Measurements: BindingDB's records for doi:10.1073/pnas.151105198 (Synaptic Pharmaceutical, 2001)

Molecular target: T1, Trace amine-associated receptor 1 (Homo sapiens, UniProt Q96RJ0)
T1 sequence (Q96RJ0 whole entry): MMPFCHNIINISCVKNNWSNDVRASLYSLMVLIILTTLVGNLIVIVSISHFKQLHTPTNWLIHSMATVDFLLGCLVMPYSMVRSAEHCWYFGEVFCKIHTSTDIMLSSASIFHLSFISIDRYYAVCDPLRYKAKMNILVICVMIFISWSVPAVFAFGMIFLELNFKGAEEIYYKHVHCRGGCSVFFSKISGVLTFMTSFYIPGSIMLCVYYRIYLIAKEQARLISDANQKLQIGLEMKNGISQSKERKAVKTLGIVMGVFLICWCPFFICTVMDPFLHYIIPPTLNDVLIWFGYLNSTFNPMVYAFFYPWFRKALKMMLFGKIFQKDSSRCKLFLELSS

| Compound | Ki |
| --- | --- |
| OCCc1ccccc1 [NSC_6054] | 8 nM |
| NCCc1c[nH]c2ccccc12 [1H-indole-3-ethanamine] | 1080 nM |
| NCCc1ccc(O)cc1 | 34 nM |
| NCC(O)c1ccc(O)c(O)c1 (stereo not drawn) [Noradrenaline,(+)] | > 10000 nM |
| CN1CCN(C2Cc3ccccc3Sc3ccc(Cl)cc32)CC1 (stereo unspecified) [1-(8-chloro-10,11-dihydrodibenzo[b,f]thiepin-10-yl)-4-methylpiperazine] | 493 nM |
| NCCc1c[nH]cn1 [[3H]histamine] | 3110 nM |
